Among the data in ChEMBL document CHEMBL1127366, “Structure--activity relationships of sialyl Lewis x-containing oligosaccharides. 1. Effect of modifications of the fucose moiety” (J Med Chem, 1994) are IC50 values, retold here.

In general, IC50 refers to the concentration that gives 50% inhibition.

This assay has as its target T1, E-selectin (Homo sapiens, UniProt P16581).
T1 sequence (P16581 whole entry): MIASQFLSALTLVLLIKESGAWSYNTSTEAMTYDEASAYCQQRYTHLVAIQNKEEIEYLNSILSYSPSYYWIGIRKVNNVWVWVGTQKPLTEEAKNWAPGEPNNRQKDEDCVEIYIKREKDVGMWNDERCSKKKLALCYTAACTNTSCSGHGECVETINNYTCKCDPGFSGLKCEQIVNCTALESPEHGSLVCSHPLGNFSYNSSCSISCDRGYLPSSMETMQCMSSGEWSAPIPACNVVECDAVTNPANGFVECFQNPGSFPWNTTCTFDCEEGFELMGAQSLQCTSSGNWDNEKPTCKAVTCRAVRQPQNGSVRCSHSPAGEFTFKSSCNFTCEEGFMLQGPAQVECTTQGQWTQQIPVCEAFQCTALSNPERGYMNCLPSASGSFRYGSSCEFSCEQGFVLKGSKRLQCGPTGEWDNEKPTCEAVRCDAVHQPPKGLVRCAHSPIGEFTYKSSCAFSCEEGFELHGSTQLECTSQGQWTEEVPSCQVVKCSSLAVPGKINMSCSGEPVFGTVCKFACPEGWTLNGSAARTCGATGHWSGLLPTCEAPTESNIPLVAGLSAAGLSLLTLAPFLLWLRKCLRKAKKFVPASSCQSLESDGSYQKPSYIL
The assay is described as follows: Tested for inhibition of cell adhesion of HL-60 containing SLeX to purified recombinant human E-selectin.

As to `CCO[C@@H]1O[C@@H](CO)[C@H](O)[C@H](O[C@@H]2O[C@@H](CO)[C@@H](O[C@@H]3O[C@@H](CO)[C@H](O)[C@H](O[C@]4(C(=O)ON)C[C@@H](O)[C@@H](NC(C)=O)C([C@H](O)[C@H](O)CO)O4)[C@@H]3O)[C@H](O[C@@H]3OC[C@@H](O)[C@H](O)[C@@H]3O)[C@@H]2NC(C)=O)[C@@H]1O` (stereo partly specified), the half-inhibitory concentration (IC50) turned out to be 5 mM.
